The numbers were not newly measured in patent publication US20100286262A1, “PTGS2 HAPLOTYPES” (priority 2007, published 2010), which cites them from elsewhere.

Like-named read-outs stand apart in the source and are kept apart here.

For data set [1], the system named is colorectal cancer (CRC) risk. To be noted: cited from earlier work.
For data set [2] the following is noted: adjuvant setting; cited from earlier work.

`CC(=O)Oc1ccccc1C(=O)O` [aspirin]: the “RR of CRC with aspirin use” value in data set [1] (cancers with weak or absent COX-2 expression, 0.73-1.26) is recorded as 0.96; in data set [1] (tumours overexpressing COX-2, 0.52-0.78), 0.64.
On to `O=c1[nH]cc(F)c(=O)[nH]1` [5-fluorouracil], for which the Cardiotoxicity in data set [2] is given as 2-4%.
